Data published in patent US4621076A, “Pharmaceutical composition useful for inhibiting platelet aggregation” (Meito Sangyo Kabushiki Kaisha, priority 1982, dated 1986).
Structures can show the parent of a compound that is named as a salt.

Key:
[1] = test system: thrombin-induced platelet aggregation; test: Inhibitory effect on thrombin-induced platelet aggregation in vitro, Table 2; format: cell-based, human (healthy person)
Procedure: Blood was drawn from the cubital vein of a healthy person with a care taken to avoid congestion. […] 0.1 ml of a solution of 5'-GMP sodium salt in each of the concentrations shown in Table 1 below was added to 0.7 ml of PRP, and then each of the various platelet aggregation inducing agents shown in Table 1 was added. Changes in absorbance were measured by an aggregometer (made by Evans Company), and the rate of platelet aggregation inhibition was calculated from the following equation.
The same experiment as in (1) above was carried out except that […] of thrombin was used as a platelet aggregation inducing agent.

platelet aggregation [2] = test: Relation between dose of GMP and aggregation inhibiting effect in rabbits in vivo; conditions: rabbit, one hour after administration
Procedure: (§1) 5'-GMP sodium salt was administered to rabbits intravenously in a dose of 50 mg/kg or orally in a dose of 1 g/kg. After a predetermined period of time (30 seconds to 4 minutes in the case of intravenous injection, and 1 to 5 hours in oral administration), blood was drawn from the animals. One part by volume of a 3.8% solution of sodium citrate was added to 9 parts by volume of the blood, and the mixture was centrifuged at 1,000 rpm at room temperature for 10 minutes to obtain platelet-rich plasma (PRP). 0.1 ml of a thrombin solution (0.75 u/ml) was added to 0.7 ml of PRP, and then changes in absorbance were measured by an aggregometer (made by Evans Company).
(2) Relation between the dose of GMP and the aggregation inhibiting effect.
Using rabbits, the dose response of the platelet aggregation inhibiting activity of 5'-GMP (sodium salt) in vivo was examined. 5'-GMP (sodium salt) was orally administered to the rabbits, and blood was drawn from the animals one hour after the administration. PRP was prepared in the same way as in section (1) above. The degree of platelet aggregation inhibition was measured by an aggregometer.

[3] = Acute toxicity in mice (Litchfield-Wilcoxon); design: species or system mouse (ddY-strain); conditions: mouse, in vivo, ddY mice, parentheses: 95% reliability limits
Procedure: The acute toxicity of the compound of formula (I) in accordance with this invention was examined.
The test compound (guanosine 5'-monophosphate sodium salt) was dissolved in physiological saline, and the solution was administered to ddY-strain mice (body weight 20 to 25 g) intravenously or orally.
The parenthesized figures show 95% reliability limits.

[4] = test system: platelet aggregation induced by collagen; test: Inhibition of collagen-induced platelet aggregation in vitro (method of Born, human PRP, aggregometer); format: cell-based, human (healthy person); conditions: collagen 5.5 γ/ml, read-out: Rate of inhibition (%)
Procedure: (§2) (1) Inhibitory effect of GMP on platelet aggregation induced by various platelet aggregation inducing substances:
(§3) The inhibitory effect was measured by the method of Born (J. Physiol., vol. 168, p. 178, 1963).
(§4) Blood was drawn from the cubital vein of a healthy person with a care taken to avoid congestion. One part by volume of a 3.8% sodium citrate solution was added to 9 parts by volume of the blood, and the mixture was centrifuged at 1,000 rpm for 10 minutes at room temperature to obtain platelet-rich plasma (PRP). 0.1 ml of a solution of 5'-GMP sodium salt in each of the concentrations shown in Table 1 below was added to 0.7 ml of PRP, and then each of the various platelet aggregation inducing agents shown in Table 1 was added. Changes in absorbance were measured by an aggregometer (made by Evans Company), and the rate of platelet aggregation inhibition was calculated from the following equation.

[5] = test system: platelet aggregation induced by norepinephrine; test: Inhibition of norepinephrine-induced platelet aggregation in vitro (method of Born, human PRP, aggregometer); format: cell-based, human (healthy person); conditions: norepinephrine 55.5 γ/ml, sample 1.00 mg/ml, read-out: Rate of inhibition (%)
Procedure: as §2, §3, §4

[6] = test system: platelet aggregation (thrombin-induced); test: Inhibitory effect on platelet aggregation in humans in vivo (thrombin added to PRP); design: species or system human (healthy persons); conditions: for Rate of platelet aggregation inhibition (%): five healthy persons, oral one gram
Procedure: (4) Inhibitory effect on platelet aggregation in humans in vivo:
One gram of 5'-GMP (sodium salt) was administered orally to each of five healthy persons, and blood was drawn from them after a predetermined period of time. One part by volume of a 3.8% aqueous solution of sodium citrate was added to 9 parts by volume of the blood, and the mixture was centrifuged at room temperature for 10 minutes at 1,000 rpm to obtain platelet-rich plasma (PRP). 0.1 ml of a thrombin solution (0.75 u/ml) was added to 0.7 ml of PRP, and changes in absorbance were measured by an aggregometer (made by Evans Company).

[7] = test system: platelet aggregation induced by 5'-ADP; test: Inhibition of 5'-ADP-induced platelet aggregation in vitro (method of Born, human PRP, aggregometer); format: cell-based, human (healthy person); conditions: 5'-ADP 55.5 γ/ml, read-out: Rate of inhibition (%)
Procedure: as §2, §3, §4

[8] = test system: platelet aggregation induced by thrombin; test: Inhibition of thrombin-induced platelet aggregation in vitro, Table 1 (method of Born, human PRP, aggregometer); format: cell-based, human (healthy person)
Procedure: as §2, §3, §4

[9] = test system: platelet aggregation (thrombin-induced); test: Duration of the platelet aggregation inhibiting effect in vivo in rabbits (thrombin added to PRP); conditions: rabbit
Procedure: (3) Inhibitory effect on platelet aggregation in vivo:
(1) Duration of the aggregation inhibiting effect.
as §1

[10] = test system: platelet aggregation induced by arachidonic acid; test: Inhibition of arachidonic acid-induced platelet aggregation in vitro (method of Born, human PRP, aggregometer); format: cell-based, human (healthy person); conditions: arachidonic acid 55.5 γ/ml, read-out: Rate of inhibition (%)
Procedure: as §2, §3, §4

platelet aggregation [11] = conditions: cited from earlier work
[12] = test system: platelet aggregation induced by various platelet aggregation inducing substances; test: Inhibition of platelet aggregation induced by various platelet aggregation inducing substances; format: cell-based, human (healthy person); conditions: Table 1
Procedure: as §2, §3, §4

[13] = test system: 5'-ADP-induced platelet aggregation; conditions: at high concentrations; cited from earlier work
[14] = test system: thrombin-induced platelet aggregation; test: Thrombin-induced platelet aggregation (inventors' test of 5'-GDP); format: cell-based; conditions: tests conducted by the present inventors

Nc1nc2c(ncn2[C@@H]2O[C@H](CO)[C@@H](OP(=O)(O)O)[C@H]2O)c(=O)[nH]1 [3'-GMP (sodium salt), Guanosine 3'-monophosphate]
inhibition at 2000 µg/mL ([1]; Homo sapiens, Platelet, thrombin 0.25 μ/ml, compound 2.0 mg/ml, read-out: Inhibition rate (%)): 87%
Inhibition rate (%) ([1]; thrombin 0.25 μ/ml, compound 2.0 mg/ml): 80%

Nc1nc2c(ncn2[C@@H]2O[C@H](COP(=O)([O-])[O-])[C@@H](O)[C@H]2O)c(=O)[nH]1.[Na+].[Na+] [5'-GMP (sodium salt), guanosine 5'-monophosphate sodium salt]
Rate of platelet aggregation inhibition (%) (platelet aggregation [2]; oral 0.5 g/kg): 38.8%
Rate of platelet aggregation inhibition (%) (platelet aggregation [2]; oral 1.0 g/kg): 61.0%
Rate of platelet aggregation inhibition (%) (platelet aggregation [2]; oral 1.5 g/kg): 75.2%
Rate of platelet aggregation inhibition (%) (platelet aggregation [2]; oral 2.0 g/kg): 80.3%
Rate of platelet aggregation inhibition (%) (platelet aggregation [2]; oral 3.0 g/kg): 100%
LD50 at 72 h ([3]; iv): 3350 mg/kg
LD50 at 72 h ([3]; po): 14800 mg/kg
inhibition at 500 µg/mL ([1]; Homo sapiens, Platelet, read-out: Inhibition rate (%), thrombin 0.25 μ/ml, compound 0.5 mg/ml): 75%
inhibition at 1000 µg/mL ([1]; Homo sapiens, Platelet, thrombin 0.25 μ/ml, compound 1.0 mg/ml, read-out: Inhibition rate (%)): 81%
inhibition at 100 µg/mL (stock) ([4]; sample 0.10 mg/ml): 10%
inhibition at 1000 µg/mL (stock) ([4]; sample 1.00 mg/ml): 10%
inhibition at 1000 µg/mL (stock) [5]: 8%
Rate of platelet aggregation inhibition (%) ([6]; 1.5 hours): 63%
Rate of platelet aggregation inhibition (%) ([6]; 3 hours): 75%
Rate of platelet aggregation inhibition (%) ([6]; 4.5 hours): 62%
inhibition at 100 µg/mL (stock) ([7]; sample 0.10 mg/ml): 3%
inhibition at 1000 µg/mL (stock) ([7]; sample 1.00 mg/ml): 10%
inhibition at 100 µg/mL ([8]; Homo sapiens, Platelet, read-out: Rate of inhibition (%)): 66%
inhibition at 1000 µg/mL (stock) ([8]; Homo sapiens, Platelet, thrombin 0.5 μ/ml, sample 1.0 mg/ml, read-out: Rate of inhibition (%)): 80%
inhibition at 10000 µg/mL (stock) ([8]; Homo sapiens, Platelet, thrombin 0.5 μ/ml, sample 10.0 mg/ml, read-out: Rate of inhibition (%)): 89%
Rate of platelet aggregation inhibition (%) ([9]; iv 50 mg/kg, 30 seconds): 94%
Rate of platelet aggregation inhibition (%) ([9]; iv 50 mg/kg, 60 seconds): 93%
Rate of platelet aggregation inhibition (%) ([9]; iv 50 mg/kg, 90 seconds): 59%
Rate of platelet aggregation inhibition (%) ([9]; iv 50 mg/kg, 120 seconds): 60%
Rate of platelet aggregation inhibition (%) ([9]; iv 50 mg/kg, 180 seconds): 62%
Rate of platelet aggregation inhibition (%) ([9]; iv 50 mg/kg, 240 seconds): 27%
Rate of platelet aggregation inhibition (%) ([9]; oral 1 g/kg, 1 hour): 95%
Rate of platelet aggregation inhibition (%) ([9]; oral 1 g/kg, 2 hours): 95%
Rate of platelet aggregation inhibition (%) ([9]; oral 1 g/kg, 3 hours): 93%
Rate of platelet aggregation inhibition (%) ([9]; oral 1 g/kg, 4 hours): 93%
Rate of platelet aggregation inhibition (%) ([9]; oral 1 g/kg, 5 hours): 83%
inhibition at 10 µg/mL (stock) ([10]; sample 0.01 mg/ml): 22%
inhibition at 1000 µg/mL (stock) ([10]; sample 1.00 mg/ml): 40%

Nc1ncnc2c1ncn2[C@@H]1O[C@H](COP(=O)(O)OP(=O)(O)O)[C@@H](O)[C@H]1O [5'-ADP, adenosine 5'-diphosphate]
action on platelet aggregation (platelet aggregation [11]): promoting platelet aggregation

Nc1nc2c(ncn2[C@@H]2O[C@H](COP(=O)(O)O)[C@@H](O)[C@H]2O)c(=O)[nH]1 [5'-GMP, Guanosine 5'-monophosphate]
inhibitory effect on aggregation inducing agents [12]: shows an inhibitory effect on all of the aggregation inducing agents tested
duration of effect ([6]; humans, oral administration): ≥ 4.5 h
effect against thrombin-induced aggregation ([8]; Table 1): especially effective against thrombin-induced aggregation
duration of effect ([9]; oral administration): ≥ 5 h
inhibition of platelet aggregation ([9]; oral administration): marked inhibition of platelet aggregation

Nc1ncnc2c1ncn2[C@@H]1O[C@H](COP(=O)(O)O)[C@@H](O)[C@H]1O [5'-AMP, adenosine 5'-monophosphate]
action on platelet aggregation (platelet aggregation [11]): weak action of inhibiting platelet aggregation

Nc1nc2c(ncn2[C@@H]2O[C@H](COP(=O)(O)OP(=O)(O)O)[C@@H](O)[C@H]2O)c(=O)[nH]1 [5'-GDP, guanosine 5'-diphosphate]
inhibitory action on 5'-ADP-induced platelet aggregation [13]: inhibitory action on 5'-ADP-induced platelet aggregation
inhibitory action on thrombin-induced platelet aggregation [14]: no inhibitory action on thrombin-induced platelet aggregation
